Reference: patent publication US20140350049A1, “METHODS AND PHARMACEUTICAL COMPOSITIONS FOR THE TREATMENT OF DARIER DISEASE” (INSERM (INSTITUT NATIONAL DE LA SANTE ET DE LA RECHERCHE …, priority 2011, published 2014)

Key:
Format in all cases: cell-based, human
[1] = tested on: Darier keratinocytes (DK); test: ER stress response (eIF2α and IRE1 phosphorylation, Western-Blot) in Darier keratinocytes; settings: for TG-induced eIF2α phosphorylation: DK pre-treated 24 h with PBA 5 mM or Miglustat 500 μM
Procedure: (§1) Cell Culture. Keratinocytes were grown in 0.06 mM CaCl2 EpiLife medium (Invitrogen) to 60-80% confluence and then incubated in 1.2 mM CaCl2 EpiLife medium for 4 hours to induce formation of cell-cell contacts.
(§2) Treatments with drugs. For ER stress induction, keratinocytes grown in high Ca^2+ (1.2 mM) medium were incubated with thapsigargin (TG, Sigma) at 1 μM for different time periods. For inhibition of SERCA pump in NK, keratinocytes were pretreated with 100 nM of TG for 30 min in low Ca^2+ (0.06 mM) medium. Medium was removed, and cells were incubated in high Ca^2+ (1.2 mM) medium for an additional 4 hours to induce the formation of cell-cell contacts.
(§3) Western-Blot. Keratinocytes were lysed in buffer containing 50 mM Tris (pH8), 120 mM NaCl, 0.5% NP-40, Complete™ protease inhibitors cocktail (Roche) and phosphatase inhibitor cocktail 2 (Sigma) for 30 minutes on ice and pelleted by centrifugation. The supernatant was collected for the quantification of protein amount by the Bradford assay. Equal amounts of soluble protein were added to Laemmli buffer (62.5 mM Tris HCl, pH 6.8, 5% ®-mercaptoethanol, 2% SDS, 10% glycerol, and 0.002% bromophenol blue). Samples were separated by SDS-PAGE and transferred onto Hybond-C extra membrane (GE Healthcare). β-actin immunodetection was used as a loading control. Blots were developed by chemiluminescence (ECL Advance, GE Healthcare or SuperSignal West Dura, Pierce).

[2] = tested on: Darier keratinocytes (DK); test: E-cadherin and SERCA2 expression in chaperone-treated Darier keratinocytes; settings: DK treated with PBA or Miglustat
Procedure: as §3, with “Treatments with drugs. For ER stress induction, keratinocytes grown in high Ca^2+ (1.2 mM) medium were incubated with thapsigargin (TG, Sigma) at 1 μM for different time periods. For inhibition of SERCA pump in NK, keratinocytes were pretreated with 100 nM of TG for 30 min in low Ca^2+ (0.06 mM) medium. Medium was removed, and cells were incubated in high Ca^2+ (1.2 mM) medium for an additional 4 hours to induce the formation of cell-cell contacts. […] Western-Blot.” for “Western-Blot.”

[3] = tested on: Darier keratinocytes (DK); test: Adherens junction formation in chaperone-treated Darier keratinocytes (immunofluorescence); settings: for F-actin network organisation / cell shape (polygonal phenotype, characteristic of cell-to-cell adhesion) / staining of AJ components (E-cadherin and catenins) at the plasma membrane: DK pre-treated 24 h with PBA 5 mM or Miglustat 500 μM; for staining of AJ components (E-cadherin and catenins) at the plasma membrane: then 1.2 mM Ca2+
Procedure: (§4) Cell Culture. Keratinocytes were grown in 0.06 mM CaCl2 EpiLife medium (Invitrogen) to 60-80% confluence and then incubated in 1.2 mM CaCl2 EpiLife medium for 4 hours to induce formation of cell-cell contacts. […] Treatments with drugs. For ER stress induction, keratinocytes grown in high Ca^2+ (1.2 mM) medium were incubated with thapsigargin (TG, Sigma) at 1 μM for different time periods. For inhibition of SERCA pump in NK, keratinocytes were pretreated with 100 nM of TG for 30 min in low Ca^2+ (0.06 mM) medium. Medium was removed, and cells were incubated in high Ca^2+ (1.2 mM) medium for an additional 4 hours to induce the formation of cell-cell contacts. […] Immunofluorescence. Keratinocytes were cultured on coverslips, fixed with 4% paraformaldehyde for 30 minutes at room temperature, and permeabilized with 0.2% TritonX-100 in PBS for 10 minutes. After blocking with 1% fetal bovine serum in PBS, cells were incubated with primary antibodies at 4° C. overnight. Subsequently, cells were incubated with the appropriate Alexa-conjugated secondary antibody at room temperature for 1 hour. For actin staining, cells were incubated with phalloidin-TRITC at room temperature for 1 hour. Lastly, coverslips were mounted on glass slides using Vectashield Hard set (Vector laboratories) and examined using a Zeiss LSM 710 confocal microscope with a 40 Plan-Apochromat objective (1.3 oil) or a 63 Plan-Apochromat objective (1.4 oil), together with a 2× zoom.

[4] = tested on: Darier keratinocytes (DK); test: ER morphology in chaperone-treated Darier keratinocytes (immunofluorescence); settings: DK pre-treated 24 h with PBA 5 mM or Miglustat 500 μM
Procedure: as §2
(§5) Immunofluorescence. Keratinocytes were cultured on coverslips, fixed with 4% paraformaldehyde for 30 minutes at room temperature, and permeabilized with 0.2% TritonX-100 in PBS for 10 minutes. After blocking with 1% fetal bovine serum in PBS, cells were incubated with primary antibodies at 4° C. overnight. Subsequently, cells were incubated with the appropriate Alexa-conjugated secondary antibody at room temperature for 1 hour. […]
(§6) Quantification of intracellular compartment volumes and co-localization. For volume quantifications, all Z-series reconstructions were imaged with a pinhole of 1 Airy Unit with an optimal Z-step. […] Each isosurfaced was selected and the volume statistic recorded. Quantification of the co-localization signals was performed using the Metamorph (Molecular Devices) software. In a single optical section, the surface of the red signal (E-cadherin) that merges with a green signal (Calnexin) was calculated.

[5] = tested on: normal keratinocytes (NK); test: ER stress response (eIF2α phosphorylation, Western-Blot) in normal keratinocytes; settings: TG 1 μM, high Ca2+ (1.2 mM) medium
Procedure: as §1, §2
as §3, with “Blots were developed by chemiluminescence (ECL Advance, GE Healthcare or SuperSignal West Dura, Pierce).” left out

[6] = tested on: normal keratinocytes (NK); test: ER volume and cell spreading in TG-treated normal keratinocytes (immunofluorescence, volume quantification); settings: TG-treated NK compared to untreated NK
Procedure: as §2, §5, §6

[7] = tested on: Darier keratinocytes (DK); test: XBP1 mRNA splicing (RT-PCR) after TG treatment; settings: DK compared to NK, TG 1 μM
Procedure: as §2
RT-PCR. RNA was isolated from keratinocytes using TRIzol (Invitrogen) and reverse transcribed using hexamer primers and Moloney murine leukemia virus RT. PCR amplification was performed.

[8] = tested on: normal keratinocytes (NK); test: E-cadherin retention in the ER (co-localization with calnexin) in TG-treated normal keratinocytes
Procedure: as §2, §5, §6

[9] = tested on: normal keratinocytes (NK); test: Adherens junction formation in TG-pretreated normal keratinocytes (immunofluorescence); settings: TG-pretreated NK (100 nM, 30 min) cultured in 1.2 mM Ca2+ for 4 hours
Procedure: as §4, with “Lastly, coverslips were mounted on glass slides using Vectashield Hard set (Vector laboratories) and examined using a Zeiss LSM 710 confocal microscope with a 40 Plan-Apochromat objective (1.3 oil) or a 63 Plan-Apochromat objective (1.4 oil), together with a 2× zoom.” left out

SMILES | TG-induced eIF2α phosphorylation [1] | E-cadherin expression [2] | SERCA2 expression [2] | F-actin network organisation [3] | cell shape (polygonal phenotype, characteristic of cell-to-cell adhesion) [3] | staining of AJ components (E-cadherin and catenins) at the plasma membrane [3] | plasma membrane localization of E-cadherin ([3]; DK, lower concentration (100 μM)) | ER expansion / perinuclear condensation of the ER [4] | increase of phospho-eIF2α after exposure to thapsigargin ([1]; DK, TG 1 μM, high Ca2+ (1.2 mM) medium) | IRE1 phosphorylation after exposure to thapsigargin ([1]; DK, TG 1 μM, extent higher than in NK) | increase of phospho-eIF2α after exposure to thapsigargin [5] | number of confluent cells per microscopy field [6] | ER volume ([6]; TG 100 nM 30 min) | spliced, active form of XBP1 mRNA after TG treatment [7] | E-cadherin intracellular surface overlapping with the calnexin positive compartment [8] | adherens junction (E-cadherin, catenins, F-actin) organisation [9] | effect on E-cadherin localization ([3]; DK, 500 μM, 24 h pre-treatment)
CCCCN1C[C@H](O)[C@@H](O)[C@H](O)[C@H]1CO [Miglustat, 1,5-(butylimino)-1,5-dideoxy-D-glucitol] | Neither TG-induced eIF2α phosphorylation nor ER expansion were reduced | neither PBA nor Miglustat increased | neither PBA nor Miglustat increased | polymerization of the F-actin network | all cells present a polygonal phenotype | a narrow, intense, continuous pericellular staining of all AJ components at the plasma membrane | increased plasma membrane localization of E-cadherin only in a limited number of cells | Neither TG-induced eIF2α phosphorylation nor ER expansion were reduced | – | – | – | – | – | – | – | – | –
C/C=C(/C)C(=O)O[C@H]1C(C)=C2[C@H]([C@@H]1OC(=O)CCCCCCC)[C@@](C)(OC(C)=O)C[C@H](OC(=O)CCC)[C@@]1(O)[C@H]2OC(=O)[C@@]1(C)O [TG, thapsigargin] | – | – | – | – | – | – | – | – | 2- to 3 fold | increased | 1.5 fold | always smaller | two-fold increase | increased in DK compared to NK | significant E-cadherin retention in the ER | AJ abnormalities similar to those in DK | –
O=C(O)CCCc1ccccc1 [PBA, 4-phenylbutyric acid] | decreased | neither PBA nor Miglustat increased | neither PBA nor Miglustat increased | cortical bundles of F-actin parallel and closer to the cell membrane | acquired a pronounced polygonal shape | a linear, sharp and more intense pericellular staining of E-cadherin and catenins | – | restored perinuclear condensation of the ER | – | – | – | – | – | – | – | – | –
CCCCN1C[C@H](O)[C@@H](O)[C@@H](O)[C@H]1CO [NB-DGJ] | – | – | – | – | – | – | – | – | – | – | – | – | – | – | – | – | had not effect
